Data set [1] relates to Venular Endothelial cells (HUVEC) (3C system). Kind of data set: BioMAP 3C system (IL-1β, TNFα, IFNγ). The class given is cell-based, human. To be noted: 10 uM; procedure of Example 825. On the procedure: The BioMAP platform (BioMAP® Diversity PLUS® Panel from Eurofins) is an in vitro phenotypic profiling technology that screened the compounds of the present disclosure (hereafter indicated as test agents) in human primary cell-based systems modelling complex tissue and disease states. The BioMAP assays were performed using the Eurofin's BioMAP Technology Platform as (see references 1 to 13 in the example 824 section) to model different diseases on primary cell-based model systems. These systems consisted of either single primary cell types or co-culture cells. Adherent cell types were cultured or co-cultured in 96 or 384-well plates until confluence followed by the addition of compounds prepared in DMSO at a final concentration of ≤0.1%. In each cell-based system, primary cells from heathy donors (2-6 donors) were pooled and treated with compounds at 1 and 10 μM dose 1h prior to stimulation and remain in culture as indicated in Example 825, Example 826, Example 827, Example 828, Example 829, Example 830, Example 831, Example 832, Example 833, Example 834, Example 835, Example 836 and Example 837. For on the BioMAP® Diversity PLUS® Panel, please see the following references, which are incorporate herein.
Following the general procedure as described in Example 824, Venular Endothelial cells (HUVEC) (3C system) were treated with IL-1β, TNFα, IFNγ for 24h to model Th1 driven cardiovascular and chronic inflammation diseases in the presence or absence of the compounds. Biomarker read out were; Tissue Factor, ICAM-1, E-selectin, uPAR (CD87), IL-8, MIG, HLA-DR, proliferation and SRB (Sulfo-rhodamine i.e. staining for protein content).

Data set [2] deals with Peripheral blood mononuclear cells co-cultured with B-cells (BT system).
Data set [3] concerns HepG2 cells. Kind of data set: Glucose uptake (Glucose Uptake-Glo). In kind it is cell-based. The following applies: Homo sapiens, 10 uM, read-out: % increase in Glucose Uptake.
For data set [4], the system named is primary culture of rat embryo mesencephalic cells (microglia, astrocytes and neurons) exposed to LPS. Kind of data set: Neuroprotective effect on damage induced by LPS on culture of mesencephalic neurons (NO, TNF-α, IL-1β, TH positive neurons). The class given is cell-based. To be noted: 50 uM, after 5 days of LPS exposure; for inhibition at 50 µM: Rattus norvegicus, Neuron, 120 h, read-out: % reversion of TH positive neurons. On the procedure:
Drug preparation. […] The stock solutions will be prepared 1000× the concentration in 100% DMSO. The final concentration of the vehicle (DMSO) is set at 0.1%.
Test animals. Pregnant Wistar rats (Janvier; France) are used for the study. They are group-housed and maintained in a room with controlled temperature (21-22° C.) and a reversed light-dark cycle (12h/12h; lights on: 17:30-05:30; lights off: 05:30-17:30) with food and water available ad libitum.
The protocol is performed in 3 independent cultures. For each culture, each condition is performed in sextuplicate.
Female rat of 15 days gestation is killed by cervical dislocation. Fetuses are removed from the uterus and their brains are harvested and placed in ice-cold medium (Leibovitz's L15 medium, Gibco). Only ventral mesencephalic flexure is used for the cell preparations. The midbrain is dissociated by trypsinization. The reaction is stopped, and the suspension is triturated and centrifuged. The pellet of dissociated cells is resuspended in culture medium consisted of DMEM-F12 (Gibco), containing 10% FBS (ATCC), 10% Horse serum (Gibco) and 2 mM L-glutamine (Gibco). Viable cells are counted and seeded on 96-well plates, precoated with poly-L-lysine. Cells are maintained in a humidified incubator at 37° C. in 5% CO2-95% air atmosphere. Half of the medium is changed on day 2 and day 5.
Treatment. On day 7, culture media are removed and replaced by new medium consisting of DMEM-F12 (Gibco) supplemented with 2% FBS (ATCC), 2% Horse serum (Gibco) and 2 mM L-glutamine (Gibco) and containing vehicle or test substances. After 1-hour exposure, LPS at 10 ng/ml is added and exposure further continued for 24 hours or 5 days period.
Inflammatory response measurement and neuronal death evaluation. NO production is measured in the media 24h and 5 days after LPS exposure using the Griess reagent kit (Molecular Probes). The Griess reagent Assay is a colorimetric reaction assay which measures the conversion of a sulfanilic salt into an azo dye product by nitrite. Visible wavelength absorbance data is collected using a 96-well plate reader at 570 nm (Multiskan EX, Thermo Fisher, France). IL-1β and TNF-α release are measured in the media 24h after LPS exposure using the ELISA development kit (PeproTech). The ELISA plate, previously coated with anti-IL-1β or anti-TNF-αantibody at 1 μg/ml, is incubated 1h with PBS containing 1% of BSA (bovine serum albumin). After washing four times with PBS containing 0.05% of Tween-20, the plate is successively incubated 2h with supernatant, 2h with biotinylated antibody at 0.5 μg/ml in PBS containing 0.1% of BSA and 0.05% of Tween-20, 45 min with Avidin-HRP conjugated at 1/2000 and 30 min with color ABTS substrate (Sigma). Visible wavelength absorbance data is collected using a 96-well plate reader at 405 nm with wavelength correction set at 650 nm (Multiskan EX, Thermo Fisher, France).
Immunodetection of tyrosine hydroxylase positive neurons. On day 12 (5 days after LPS exposure), cultures are fixed 30 min at 4° C. with paraformaldehyde in PBS (4%, Sigma). Then, cells are successively permeabilized with 0.1% Triton X100 for 30 min, saturated with PBS containing 3% of BSA (bovine serum albumin) and are incubated 2h with anti-tyrosine hydroxylase antibody (Sigma, 1:10000; clone TH-2) at 1/10 000 in PBS containing 0.5% of BSA. Cells are washed three times with PBS containing 0.5% of BSA, and they are incubated 1h with goat anti mouse antibody coupled with AF488 (Invitrogen A11001) diluted at 1/1000 in PBS containing 0.5% of BSA. Finally, nuclei are stained with DAPI at 1/1000 in PBS containing 0.5% of BSA. After rinsing with PBS, the plate is visualized and examined with Cell Insight HCS (Thermo Scientific) to determine the number of tyrosine hydroxylase positive cells per well.
Statistical Analysis. The drug-induced effect on NO and cytokines is calculated by setting the response of the LPS-stimulated control as 100%. […]

Data set [5] concerns Peripheral blood mononuclear cells co-cultured with B-cells (BT system). As to the kind of experiment: cells. The following applies: Homo sapiens, 72 h.
For data set [6], the system named is Coronary artery smooth muscle cells (CASM3C system). Kind of data set: BioMAP CASM3C system (IL-1β, TNFα, IFNγ). The class given is cell-based, human. To be noted: for inhibition at 10 µM: Homo sapiens, 24 h, read-out: % decrease in Thrombomodulin.
In data set [7] the test system is Dermal fibroblasts (HDF3CGF system). Kind of data set: BioMAP HDF3CGF system (IL-1β, TNFα, IFNγ, EGF, bFGF, PDGF-BB). In kind it is cell-based, human.
For data set [8], the system named is Peripheral blood mononuclear cells co-cultured with venular endothelial cells (HUVEC) (LPS system). Kind of data set: BioMAP LPS system. The following applies: procedure of Example 827; for inhibition at 10 µM / activation at 10 µM / inhibition at 1 µM: Homo sapiens, HUVEC, 24 h; for activation at 10 µM: read-out: % increase in sTNFα. The class given is cell-based, human.

For data set [9], the system named is Bronchial epithelial cells co-cultured with dermal fibroblast (BF4T system). As to the kind of experiment: BioMAP BF4T system (TNFα and IL-4). In kind it is cell-based, human. The following applies: procedure of Example 830.
The subject of data set [10] is Venular Endothelial cells (HUVEC) (4H system). As to the kind of experiment: BioMAP 4H system (IL-4 and histamine). The class given is cell-based, human. The following applies: procedure of Example 826; for inhibition at 1 µM: Homo sapiens, HUVEC, 24 h, read-out: % decrease in VEGFRII.
In data set [11] the test system is Propionic Acidemia (PA) primary fibroblasts GM00371. As to the kind of experiment: Mitochondrial respiration, XFe96 Extracellular Flux Analyzer (OCR/ECAR), PA fibroblasts GM00371. In kind it is cell-based. The following applies: Homo sapiens, Fibroblast, read-out: Increase in Maximal Respiratory Capacity AUC; for activation at 50 µM: assay condition C (10 mM glucose, 10% FBS).

In data set [12] the test system is Bronchial epithelial cells (BE3C system). As to the kind of experiment: BioMAP BE3C system (IL-1β, TNFα, IFNγ). In kind it is cell-based, human. To be noted: 10 uM, procedure of Example 831; for inhibition at 10 µM: Homo sapiens, Epithelial cell, 24 h, read-out: % decrease in MMP-1.
Setting [13] is: 10 uM, procedure of Example 829.
Setting [14] is: 10 uM, procedure of Example 833.

SMILES strings stand for the structures. Read-outs that look alike come from different tables or passages of the source.

Regarding `COC(=O)/C=C/C(=O)SCCNC(=O)CCNC(=O)[C@H](O)C(C)(C)COC(C)=O` [Compound 145, methyl (2E)-4-[(2-[3-[(2R)-4-(acetyloxy)-2-hydroxy-3,3-dimethylbutanamido]propanamido]ethyl)sulfanyl]-4-oxobut-2-enoate], in data set [1], the “% decrease in IL-8” value is reported as at least 10%. The “% decrease in B-cell proliferation” value in data set [2] (1 uM, procedure of Example 829) is on record as at least 20%. Besides, the “% decrease in sTNFα” value in data set [2] (setting [13]) is at least 10%. For the same compound, in [2] (human, 72 h, 10 µM), the “% decrease in PBMC cytotoxicity” value is at least 20%. The activation at 10 µM was at least 30% in [3] and at least 10% in [8]. In data set [4], the “% decrease in NO release relative to LPS alone” value is at least 35%. Further, the inhibition at 50 µM is at least 15% in [4] (list at threshold 15%) and at least 50% in data set [4] (list at threshold 50%). Further, the inhibition at 1 µM in data set [5] (read-out: % decrease in sIL-17) is at least 10%. Further, the “% decrease in LDLR” value in data set [6] (1 uM, procedure of Example 832) is on record as at least 10%. Also, in data set [6] (10 uM), the “% decrease in HLA-DR” value was at least 10%. Besides, the “% decrease in Collagen I” value in [7] (setting [14]) is given as at least 10%. Also, the inhibition at 10 µM was at least 10% in data set [7] (Homo sapiens, Fibroblast, 24 h, 10 uM, read-out: % decrease in Collagen III); at least 10% in [8] (read-out: % decrease in IL-1α); at least 10% in [8] (read-out: % decrease in IL-8). Besides, the “% increase in tPA” value in [9] (10 uM) is at least 10%. In addition, in data set [9] (Homo sapiens, 24 h, 1 uM, read-out: % increase in VCAM-1), the activation at 1 µM was at least 10%.
Take `COC(=O)CCC(=O)SCCNC(=O)CCNC(=O)[C@H](O)C(C)(C)COC(=O)OCC[N+](C)(C)C` [Compound 117, [2-([[(3R)-3-hydroxy-3-[[2-([2-[(4-methoxy-4-oxobutanoyl)sulfanyl]ethyl]carbamoyl)ethyl]carbamoyl]-2,2-dimethylpropoxy]carbonyl]oxy)ethyl]trimethylazanium]: the “% increase in Proliferation (HUVEC)” value in [1] was at least 10%. For the same compound, the inhibition at 1 µM is at least 10% in [10]; at least 20% in data set [5] (read-out: % decrease in sIL-17); at least 10% in [8] (1 uM, read-out: % decrease in sPGE2). The activation at 10 µM in data set [3] was at least 30%; in [5] (read-out: % increase in sIL-6) it was at least 10%; in data set [7] (Homo sapiens, Fibroblast, 72 h, 10 uM, read-out: % increase in 72 Hour Proliferation), at least 10%; in data set [8], at least 20%. The activation at 50 µM in [11] is at least 10%. Also, in [6] (10 uM), the “% decrease in CXCL9” value is at least 10%. In addition, the inhibition at 10 µM in [6] (10 uM) and in [12] was at least 10% throughout. For the same compound, in data set [8] (1 uM), the “% increase in IL-1α” value is at least 10%. Further, the “% increase in Tissue Factor” value in data set [8] (1 uM) is at least 10%. For the same compound, the “% decrease in tPA” value in data set [12] and in data set [9] (10 uM) was at least 10% in each case.
Regarding `CC(=O)OCCCC(=O)SCCNC(=O)CCNC(=O)[C@H](O)C(C)(C)CO` [Compound 1305, 4-[(2-[3-[(2R)-2,4-dihydroxy-3,3-dimethylbutanamido]propanamido]ethyl)sulfanyl]-4-oxobutyl acetate], the “% increase in Proliferation (HUVEC)” value in data set [1] is on record as at least 20%. Also, the “% decrease in MCP-1” value in [10] (10 uM) is at least 10%. Moreover, the inhibition at 1 µM in [10] was at least 10%; in data set [7] (Homo sapiens, Fibroblast, 24 h, 1 uM, read-out: % decrease in Collagen III) it was at least 10%; in data set [8] (1 uM, read-out: % decrease in IL-8) it was at least 10%; in data set [8] (1 uM, read-out: % decrease in TissueFactor), at least 10%. Moreover, in [2] (setting [13]), the “% increase in B-cell Proliferation” value is reported as at least 10%. In addition, the activation at 10 µM in data set [3] is at least 10%; in data set [11] (assay condition D (1 mM glucose, 10% FBS), 10 μM), at least 10%; in data set [8], at least 20%. Moreover, the activation at 50 µM in data set [11] is at least 10%. For the same compound, the inhibition at 10 µM in [5] (read-out: % decrease in sIL-17) was at least 20%; in data set [6] (10 uM) it was at least 20%; in data set [12] it was at least 10%. For the same compound, the “% decrease in M-CSF” value in data set [6] (1 uM, procedure of Example 832) is at least 10%. In addition, in [6] (1 uM, procedure of Example 832), the “% decrease in Proliferation” value is given as at least 10%. The “% decrease in VCAM-1” value in [6] (1 uM, procedure of Example 832) was at least 10%. Further, in data set [6] (10 uM), the “% decrease in CXCL9” value was at least 10%. The “% decrease in Tissue Factor” value in data set [6] (10 uM) is recorded as at least 10%. Also, the “% decrease in CXCL11/I-TAC” value in data set [7] (setting [14]) is listed as at least 10%.

The record behind these values is patent publication US20230107216A1, “PANTETHEINE DERIVATIVES AND USES THEREOF” (Comet Therapeutics, Inc., priority 2018, published 2023).
